Test results taken from patent US20230404996A1, “APPLICATION OF ISOQUINOLINE COMPOUND IN TUMOR TREATMENT” (NANJIANG SHIJIANG MEDICINE TECHNOLOGY CO., LTD, priority 2020, published 2023).
Structures can show the parent of a compound that is named as a salt. Where two headings read alike, the source gives them in different places.

Columns and labels:
NCI-H82 = assay: Cell viability (CellTiter-Glo) IC50 on tumor cell lines; assay type: cell-based, human; settings: NCI-H82, 3 days of culture, read-out: Inhibitory effect on cell line (IC50)
Protocol: (§1) The inhibitory effect of isoquinoline compounds on various tumor cell lines was detected using cell activity detection reagent.
(§2) Cell viability was detected using the Promega CellTiter-Glo kit, the kit reflected cell viability by directly measuring intracellular ATP content. In this experiment, the IC50 values of isoquinoline compounds on various tumor cell lines was determined.
(§3) Tumor cells were cultured in 10% FBS-containing medium (+p/s), and incubated for 3 h or the following day, then the gradient diluted isoquinoline compound was added. After 3 days of culture, the relevant IC50 (50% inhibiting concentration) was measured. The name, source and culture conditions of each tumor cell line were as follows: • Cell line NCI-H82 (ATCC, No. HTB-175) was cultured in 10% fetal bovine serum-containing RPMI1640 medium (+P/S). • Cell line G-401 (ATCC, No. CRL-1441) was cultured in 10% fetal bovine serum-containing McCoy's 5a medium (+P/S). • Cell line MDA-MB-453 (ATCC, No. HTB-131) was cultured in 10% fetal bovine serum-containing Leibovit's L-15 medium (+P/S). • Cell line SW48 (ATCC, No. CCL-231) was cultured in 10% fetal bovine serum-containing Leibovitz's L-15 medium (+P/S). • Cell line CFPAC-1 (ATCC, No. CRL-1918) was cultured in 10% fetal bovine serum-containing IMDM medium (+P/S). • Cell line 786-O (ATCC, No. CRL-1932) was cultured in 10% fetal bovine serum-containing RPMI1640 medium (+P/S). • Cell line GB-I (JCRB, No. IFO50489) was cultured in 10% fetal bovine serum-containing DMEM medium (+P/S). • Cell line SF126 (JCRB, No. IFO50286) was cultured in 10% fetal bovine serum-containing EMEM medium (+P/S).

786-O = assay: as above; assay type: cell-based; settings: Homo sapiens, 786-0, 72 h, 3 days of culture, read-out: Inhibitory effect on cell line (IC50)
Protocol: as §1, §2, §3

CFPAC-1 = assay: as above; assay type: cell-based; settings: Homo sapiens, 72 h; CFPAC-1, 3 days of culture; read-out: Inhibitory effect on cell line (IC50)
Protocol: as §1, §2, §3

G-401 = assay: as above; assay type: cell-based; settings: Homo sapiens, 72 h; G-401, 3 days of culture; read-out: Inhibitory effect on cell line (IC50)
Protocol: as §1, §2, §3

GB-1 = assay: as above; assay type: cell-based; settings: Homo sapiens, 72 h; GB-1, 3 days of culture; read-out: Inhibitory effect on cell line (IC50)
Protocol: as §1, §2, §3

MDA-MB-453 = assay: as above; assay type: cell-based; settings: Homo sapiens, 72 h; MDA-MB-453, 3 days of culture; read-out: Inhibitory effect on cell line (IC50)
Protocol: as §1, §2, §3

SF-126 = assay: as above; assay type: cell-based; settings: Homo sapiens, 72 h; SF-126, 3 days of culture; read-out: Inhibitory effect on cell line (IC50)
Protocol: as §1, §2, §3

SW48 = assay: as above; assay type: cell-based; settings: Homo sapiens, 72 h; SW48, 3 days of culture; read-out: Inhibitory effect on cell line (IC50)
Protocol: as §1, §2, §3

D341 Med = assay: Cell viability (CellTiter-Glo) IC50 on brain tumor cell lines; assay type: cell-based; settings: 72 h, 3 days of culture, read-out: Inhibitory effect on brain tumor cell line (IC50)
Protocol: (§4) The inhibitory effect of isoquinoline compounds on various brain tumor cell lines was detected using cell activity detection reagents.
(§5) Cell viability was detected using the Promega CeliTiter-Glo kit, the kit reflected cell viability by directly measuring intracellular ATP content. In this experiment, the IC50 values of isoquinoline compounds on various brain tumor cell lines was determined.
(§6) Brain tumor cells were cultured in 10% FBS-containing medium (+p/s), and incubated for 3 h or the following day, the gradient diluted isoquinoline compound was added. After 3 days of culture, the relevant IC50 (50% inhibiting concentration) was measured. The name, source and culture conditions of each brain tumor cell line were as follows: • Cell line D341 Med (ATCC, No. HTB-187) was cultured in 20% fetal bovine serum-containing EMEM medium (+P/S). • Cell line Kelly (ECACC, No. 92110411) was cultured in RPMI1640 medium containing 10% fetal bovine serum and 2 mM glutamine; • Cell line NB-I (ATCC, No. HTB-131) was cultured in 10% fetal bovine serum-containing Leibovitz's L-15 medium (+P/S).

Kelly = assay: as above; assay type: cell-based; settings: 72 h, 3 days of culture, read-out: Inhibitory effect on brain tumor cell line (IC50)
Protocol: as §4, §5, §6

NB-1 = assay: as above; assay type: cell-based; settings: Homo sapiens, NB1, 72 h; NB-1, 3 days of culture; read-out: Inhibitory effect on brain tumor cell line (IC50)
Protocol: as §4, §5, §6

[1] = system: NCI-H82 cell overexpressing NNMT protein (ov-NNMT); assay: Sensitivity of NCI-H82 cell after overexpression of NNMT protein (intracellular ATP detection); assay type: cell-based, human; settings: NNMT protein overexpressed alone (ov-NNMT), compared with Vector; FIG. 11
Description: (§7) The NCI-H82 cell overexpressing NNMT protein was obtained by inserting the NNMT gene into NCI-1-182 cell using a viral vector. The expression of DNMT1 in NCI-H82 cells was knocked down using shRNA transfection. The changes in sensitivity of cell to isoquinoline compounds was investigated using intracellular ATP detection methods after overexpression of NNMT protein and/or knockdown of DNMT1 expression. The experiment result was shown in FIG. 11, wherein, “Vector” referred to NCI-1182 cell transfected with empty virus as control group.

[2] = system: NCI-H82 cell with knockdown of DNMT1 expression (sh-DNMT1 #1, sh-DNMT1 #2); assay: Sensitivity of NCI-H82 cell after knockdown of DNMT1 expression (intracellular ATP detection); assay type: cell-based, human; settings: DNMT1 expression knocked down (sh-DNMT1 #1 or #2), compared with Vector; FIG. 11
Description: as §7

[3] = system: NCI-H82 cell ov-NNMT/sh-DNMT1 #1 and ov-NNMT/sh-DNMT1 #2; assay: Sensitivity of NCI-H82 cell after overexpression of NNMT and knockdown of DNMT1 (intracellular ATP detection); assay type: cell-based, human; settings: NNMT overexpressed and DNMT1 knocked down simultaneously; FIG. 11
Description: as §7

NCI-H82 tumor = assay: Inhibitory effect on subcutaneous NCI-H82 tumor in nude mice; assay type: in vivo; settings: nude mice inoculated with NCI-H82, intraperitoneally 10 mg/kg/day; FIG. 14
Description: (§8) To verify whether the cells sensitive to isoquinoline compounds still maintained the sensitivity to isoquinoline compounds in vivo, inhibitory effect of berberine hydrochloride on tumor-bearing mice subcutaneously inoculated with sensitive cells (NCI-H82) was detected.
(§9) 5×10^6 of normal NCI-H82 cells, NCI-H82 cells with overexpression of NNMT protein and […] of DNMT1 (i.e. ov-NNMT/sh-DNMT1, the method for overexpressing NNMT protein and knocking down DNMT1 expression was shown in Example 13) were subcutaneously inoculated in nude mice to establish tumor-bearing mice. Each group of tumor-bearing mice was injected intraperitoneally with the berberine hydrochloride at a dose of 10 mg/kg/day, the change of tumor volume size over time was measured, and the tumors were removed and photographed in each group of mice at the end of the experiment to investigate the inhibitory effect of berberine hydrochloride on the tumor. The mice in control group was injected intraperitoneally with solvent vehicle in the same method, and the tumor volume was calculated as follows: tumor volume=½ length×width^2.

[4] = system: NCI-H82 ov-NNMT/sh-DNMT1 tumor; assay: Inhibitory effect on subcutaneous NCI-H82 ov-NNMT/sh-DNMT1 tumor in nude mice; assay type: in vivo; settings: nude mice inoculated with ov-NNMT/sh-DNMT1, intraperitoneally 10 mg/kg/day, compared with NCI-H82 tumor; FIG. 15
Description: as §8, §9

Compound: COc1ccc2cc3[n+](cc2c1OCC(=O)OC(C)(C)C)CCc1cc2c(cc1-3)OCO2 [Compound BBR-A5]
- IC50 (NCI-H82; Homo sapiens, 72 h): 500 nM
- IC50 (786-O): 18500 nM
- IC50 (CFPAC-1): 17700 nM
- IC50 (G-401): 1100 nM
- IC50 (GB-1): 9200 nM
- IC50 (MDA-MB-453): 700 nM
- IC50 (SF-126): 15500 nM
- IC50 (SW48): 1800 nM
- IC50 (D341 Med): 1500 nM
- IC50 (Kelly): 1800 nM
- IC50 (NB-1): 300 nM

Compound: C=CCOc1c(OC)ccc2cc3[n+](cc12)CCc1cc2c(cc1-3)OCO2 [Compound BBR-A2]
- IC50 (NCI-H82; Homo sapiens, 72 h): 700 nM
- IC50 (786-O): 37100 nM
- IC50 (CFPAC-1): 14900 nM
- IC50 (G-401): 1600 nM
- IC50 (GB-1): 11200 nM
- IC50 (MDA-MB-453): 1300 nM
- IC50 (SF-126): 22600 nM
- IC50 (SW48): 3200 nM
- IC50 (D341 Med): 1700 nM
- IC50 (Kelly): 2100 nM
- IC50 (NB-1): 600 nM

Compound: c1c2c(cc3c1OCO3)-c1cc3ccc4c(c3c[n+]1CC2)OCO4 [Coptisine hydrochloride]
- IC50 (NCI-H82): 1800 nM
- IC50 (786-O): > 30000 nM
- IC50 (CFPAC-1): 22100 nM
- IC50 (G-401): 3400 nM
- IC50 (GB-1): 24800 nM
- IC50 (MDA-MB-453): 1600 nM
- IC50 (SF-126): > 30000 nM
- IC50 (SW48): 6000 nM
- IC50 (D341 Med): 2800 nM
- IC50 (Kelly): 4400 nM
- IC50 (NB-1): 2500 nM

Compound: CCCOc1c(OC)ccc2cc3[n+](cc12)CCc1cc2c(cc1-3)OCO2 [Compound BBR-A1]
- IC50 (NCI-H82; Homo sapiens, 72 h): 400 nM
- IC50 (786-O): 16300 nM
- IC50 (CFPAC-1): 8300 nM
- IC50 (G-401): 1000 nM
- IC50 (GB-1): 9100 nM
- IC50 (MDA-MB-453): 800 nM
- IC50 (SF-126): 7500 nM
- IC50 (SW48): 200 nM
- IC50 (D341 Med): 1000 nM
- IC50 (Kelly): 1300 nM
- IC50 (NB-1): 300 nM

Compound: Cc1c2[n+](cc3cc4c(cc13)OCO4)CCc1cc3c(cc1-2)OCO3 [worenine]
- IC50 (NCI-H82; Homo sapiens, 72 h): 4300 nM
- IC50 (786-O): > 30000 nM
- IC50 (CFPAC-1): > 30000 nM
- IC50 (G-401): 2300 nM
- IC50 (GB-1): > 30000 nM
- IC50 (MDA-MB-453): 1300 nM
- IC50 (SF-126): > 30000 nM
- IC50 (SW48): 9600 nM
- IC50 (D341 Med): 4800 nM
- IC50 (Kelly): 3900 nM
- IC50 (NB-1): 2600 nM

Compound: COc1ccc2cc3[n+](cc2c1OC)CCc1cc2c(cc1-3)OCO2 [Berberine hydrochloride, reference compound]
- IC50 (NCI-H82; Homo sapiens, 72 h): 510 nM
- IC50 (786-O): 15300 nM
- IC50 (CFPAC-1): 9500 nM
- IC50 (G-401): 1120 nM
- IC50 (GB-1): 19600 nM
- IC50 (MDA-MB-453): 940 nM
- IC50 (SF-126): 21300 nM
- IC50 (SW48): 1260 nM
- IC50 (D341 Med): 4500 nM
- IC50 (Kelly): 4100 nM
- IC50 (NB-1): 1700 nM
- Sensitivity of NCI-H82 cell to the compound [1]: decreased
- Sensitivity of NCI-H82 cell to the compound [2]: decreased
- Sensitivity of NCI-H82 tumor cells to the compound [3]: decreased more significantly
- Inhibitory effect on subcutaneous tumor (tumor volume) (NCI-H82 tumor): significantly inhibit
- Inhibitory effect on subcutaneous tumor (tumor volume) [4]: significantly weaker
